Converted amounts (≈) assume the structure as drawn.
Experiments:
[1] = system: Klebsiella pneumoniae; experiment: Antibacterial activity against ESBLs negative Carbapenem-sensitive Klebsiella pneumonia 15-2 assessed as reduction in bacterial growth; type: functional
[2] = system: Acinetobacter baumannii; experiment: Antibacterial activity against Carbapenem- resistant Acinetobacter baumannii 17-8 assessed as reduction in bacterial growth; type: functional
[3] = system: Klebsiella pneumoniae; experiment: Antibacterial activity against Carbapenem- sensitive Klebsiella pneumoniae 17-5 overexpressing extended spectrum beta-lactamases assessed as reduction in bacterial growth; type: functional
[4] = system: Acinetobacter baumannii; experiment: Antibacterial activity against Carbapenem- resistant Acinetobacter baumannii 17-5 assessed as reduction in bacterial growth
[5] = system: Klebsiella aerogenes; experiment: Antibacterial activity against Enterobacter aerogenes 17-4 assessed as reduction in bacterial growth in the presence of Avibactam; type: functional
[6] = system: Enterobacter cloacae; experiment: Antibacterial activity against Enterobacter cloacae 17-3 assessed as reduction in bacterial growth; type: functional
[7] = system: Klebsiella aerogenes; experiment: Antibacterial activity against Enterobacter aerogenes 15-6 assessed as reduction in bacterial growth; type: functional
[8] = system: Klebsiella aerogenes; experiment: Antibacterial activity against Enterobacter aerogenes 17-2 assessed as reduction in bacterial growth; type: functional
[9] = system: Acinetobacter baumannii; experiment: Antibacterial activity against Carbapenem- resistant Acinetobacter baumannii 17-12 assessed as reduction in bacterial growth; type: functional
[10] = system: Klebsiella pneumoniae; experiment: Antibacterial activity against Carbapenem- resistant Klebsiella pneumoniae KR 15-10 assessed as reduction in bacterial growth; type: functional
[11] = system: Escherichia coli; experiment: Antibacterial activity against ESBLs positive Carbapenem-sensitive Escherichia coli 17-21 assessed as reduction in bacterial growth; type: functional
[12] = system: Klebsiella pneumoniae; experiment: Antibacterial activity against Carbapenem- resistant Klebsiella pneumoniae KR 15-4 assessed as reduction in bacterial growth; type: functional
[13] = system: Klebsiella aerogenes; experiment: Antibacterial activity against Enterobacter aerogenes 17-2 assessed as reduction in bacterial growth in the presence of Avibactam; type: functional
[14] = system: Klebsiella pneumoniae; experiment: Antibacterial activity against ESBLs negative Carbapenem-sensitive Klebsiella pneumoniae 17-18 assessed as reduction in bacterial growth; type: functional
[15] = system: Escherichia coli; experiment: Antibacterial activity against Escherichia coli ATCC 25922 assessed as reduction in bacterial growth; type: functional
[16] = system: Enterobacter cloacae; experiment: Antibacterial activity against Enterobacter cloacae 17-6 assessed as reduction in bacterial growth; type: functional
[17] = system: Enterobacter cloacae; experiment: Antibacterial activity against Enterobacter cloacae 17-10 assessed as reduction in bacterial growth; type: functional
[18] = system: Klebsiella pneumoniae; experiment: Antibacterial activity against Carbapenem- sensitive Klebsiella pneumoniae 17-14 overexpressing extended spectrum beta-lactamases assessed as reduction in bacterial growth; type: functional
[19] = system: Klebsiella pneumoniae; experiment: Antibacterial activity against Carbapenem- resistant Klebsiella pneumoniae KR 15-8 assessed as reduction in bacterial growth; type: functional
[20] = system: Enterobacter cloacae; experiment: Antibacterial activity against Enterobacter cloacae 17-5 assessed as reduction in bacterial growth; type: functional
[21] = system: Klebsiella aerogenes; experiment: Antibacterial activity against Enterobacter aerogenes 15-3 assessed as reduction in bacterial growth; type: functional
[22] = system: Escherichia coli; experiment: Antibacterial activity against ESBLs positive Carbapenem-sensitive Escherichia coli 17-18 assessed as reduction in bacterial growth; type: functional
[23] = system: Klebsiella pneumoniae; experiment: Antibacterial activity against Carbapenem- resistant Klebsiella pneumoniae KR 15-5 assessed as reduction in bacterial growth in the presence of Avibactam; type: functional
[24] = system: Escherichia coli; experiment: Antibacterial activity against ESBLs positive Carbapenem-sensitive Escherichia coli 17-6 assessed as reduction in bacterial growth; type: functional
[25] = system: Acinetobacter baumannii; experiment: Antibacterial activity against Carbapenem- resistant Acinetobacter baumannii 17-11 assessed as reduction in bacterial growth; type: functional
[26] = system: Acinetobacter baumannii; experiment: Bactericidal activity against Carbapenem- resistant Acinetobacter baumannii 17-2 assessed as reduction in bacterial growth in the presence of avibactam; type: functional
[27] = system: Klebsiella pneumoniae; experiment: Antibacterial activity against Carbapenem- sensitive Klebsiella pneumoniae 17-9 overexpressing extended spectrum beta-lactamases assessed as reduction in bacterial growth; type: functional
[28] = system: Klebsiella pneumoniae; experiment: Antibacterial activity against Carbapenem- sensitive Klebsiella pneumoniae 17-6 overexpressing extended spectrum beta-lactamases assessed as reduction in bacterial growth; type: functional
[29] = system: Escherichia coli; experiment: Antibacterial activity against ESBLs positive Carbapenem-sensitive Escherichia coli 17-17 assessed as reduction in bacterial growth; type: functional
[30] = system: Pseudomonas aeruginosa; experiment: Antibacterial activity against Carbapenem- sensitive Pseudomonas aeruginosa 17-7 assessed as reduction in bacterial growth; type: functional
[31] = system: Enterobacter cloacae; experiment: Antibacterial activity against Enterobacter cloacae 17-7 assessed as reduction in bacterial growth; type: functional
[32] = system: Klebsiella pneumoniae; experiment: Antibacterial activity against Carbapenem- sensitive Klebsiella pneumoniae 17-11 overexpressing extended spectrum beta-lactamases assessed as reduction in bacterial growth; type: functional
[33] = system: Klebsiella pneumoniae; experiment: Antibacterial activity against Carbapenem- resistant Klebsiella pneumoniae KR 15-12 assessed as reduction in bacterial growth; type: functional
[34] = system: Escherichia coli; experiment: Antibacterial activity against ESBLs positive Carbapenem-sensitive Escherichia coli 17-5 assessed as reduction in bacterial growth; type: functional
[35] = system: Klebsiella pneumoniae; experiment: Bactericidal activity against Klebsiella pneumoniae ATCC BAA-1705 assessed as reduction in bacterial growth in the presence of avibactam; type: functional
[36] = system: Pseudomonas aeruginosa; experiment: Antibacterial activity against Carbapenem- sensitive Pseudomonas aeruginosa 17-22 assessed as reduction in bacterial growth; type: functional
[37] = system: Pseudomonas aeruginosa; experiment: Antibacterial activity against Carbapenem- sensitive Pseudomonas aeruginosa 17-10 assessed as reduction in bacterial growth; type: functional
[38] = system: Escherichia coli; experiment: Antibacterial activity against ESBLs positive Carbapenem-sensitive Escherichia coli 17-10 assessed as reduction in bacterial growth; type: functional
[39] = system: Klebsiella aerogenes; experiment: Antibacterial activity against Enterobacter aerogenes 15-7 assessed as reduction in bacterial growth; type: functional
[40] = system: Pseudomonas aeruginosa; experiment: Bactericidal activity against carbapenem-sensitive Pseudomonas aeruginosa 17-7 assessed as reduction in bacterial growth in the presence of avibactam; type: functional
[41] = system: Klebsiella aerogenes; experiment: Antibacterial activity against Enterobacter aerogenes 17-1 assessed as reduction in bacterial growth in the presence of Avibactam; type: functional
[42] = system: Escherichia coli; experiment: Antibacterial activity against Escherichia coli ATCC 35218 assessed as reduction in bacterial growth; type: functional
[43] = system: Escherichia coli; experiment: Antibacterial activity against ESBLs positive Carbapenem-sensitive Escherichia coli 17-2 assessed as reduction in bacterial growth; type: functional
[44] = system: Escherichia coli; experiment: Antibacterial activity against ESBLs negative Carbapenem-sensitive Escherichia coli 17-7 assessed as reduction in bacterial growth; type: functional
[45] = system: Klebsiella aerogenes; experiment: Bactericidal activity against Enterobacter aerogenes 15-4 assessed as reduction in bacterial growth; type: functional
[46] = system: Pseudomonas aeruginosa; experiment: Bactericidal activity against carbapenem-sensitive Pseudomonas aeruginosa 17-26 assessed as reduction in bacterial growth in the presence of avibactam; type: functional
[47] = system: Enterobacter cloacae; experiment: Antibacterial activity against Enterobacter cloacae 17-8 assessed as reduction in bacterial growth; type: functional
[48] = system: Escherichia coli; experiment: Antibacterial activity against ESBLs negative Carbapenem-sensitive Escherichia coli 17-7 assessed as reduction in bacterial growth in the presence of Avibactam; type: functional
[49] = system: Escherichia coli; experiment: Bactericidal activity against ESBLs positive Carbapenem-sensitive Escherichia coli 17-3 assessed as reduction in bacterial growth; type: functional
[50] = system: Escherichia coli; experiment: Antibacterial activity against ESBLs positive Carbapenem-sensitive Escherichia coli 17-22 assessed as reduction in bacterial growth in the presence of Avibactam; type: functional
[51] = system: Escherichia coli; experiment: Antibacterial activity against Escherichia coli NCTC 13353 assessed as reduction in bacterial growth; type: functional
[52] = system: Acinetobacter baumannii; experiment: Bactericidal activity against Carbapenem- resistant Acinetobacter baumannii 17-11 assessed as reduction in bacterial growth in the presence of avibactam; type: functional
[53] = system: Escherichia coli; experiment: Antibacterial activity against ESBLs positive Carbapenem-sensitive Escherichia coli 17-3 assessed as reduction in bacterial growth; type: functional

## Nc1nc(/C(=N/OCc2cc(=O)c(O)cn2O)C(=O)N[C@@H]2C(=O)N3C(C(=O)O)=CCS[C@H]23)cs1
[1]
  MIC: 0.06 µg/mL (≈ 0.118 µM)
[2]
  MIC: > 64 µg/mL
[3]
  MIC: 8 µg/mL (≈ 15.7 µM)
[4]
  MIC: > 64 µg/mL
[5]
  MIC: 1 µg/mL
[6]
  MIC: 64 µg/mL (≈ 126 µM)
[7]
  MIC: 16 µg/mL (≈ 31.5 µM)
[8]
  MIC: 64 µg/mL (≈ 126 µM)
[9]
  MIC: > 64 µg/mL
[10]
  MIC: > 64 µg/mL
[11]
  MIC: 64 µg/mL (≈ 126 µM)
[12]
  MIC: > 64 µg/mL
[13]
  MIC: 1 µg/mL
[14]
  MIC: ≤ 0.03 µg/mL
[15]
  MIC: 0.5 µg/mL (≈ 0.983 µM)
[16]
  MIC: 2 µg/mL (≈ 3.93 µM)
[17]
  MIC: 1 µg/mL (≈ 1.97 µM)
[18]
  MIC: 4 µg/mL (≈ 7.87 µM)
[19]
  MIC: > 64 µg/mL
[20]
  MIC: 32 µg/mL (≈ 62.9 µM)
[21]
  MIC: > 64 µg/mL
[22]
  MIC: 8 µg/mL (≈ 15.7 µM)
[23]
  MIC: 2 µg/mL
[24]
  MIC: 32 µg/mL (≈ 62.9 µM)
[25]
  MIC: > 64 µg/mL
[26]
  MBC: 16 µg/mL
[27]
  MIC: 64 µg/mL (≈ 126 µM)
[28]
  MIC: 0.25 µg/mL (≈ 0.492 µM)
[29]
  MIC: > 64 µg/mL
[30]
  MIC: 0.25 µg/mL (≈ 0.492 µM)
[31]
  MIC: > 64 µg/mL
[32]
  MIC: > 64 µg/mL
[33]
  MIC: > 64 µg/mL
[34]
  MIC: 64 µg/mL (≈ 126 µM)
[35]
  MBC: 2 µg/mL
[36]
  MIC: 1 µg/mL (≈ 1.97 µM)
[37]
  MIC: 2 µg/mL (≈ 3.93 µM)
[38]
  MIC: 4 µg/mL (≈ 7.87 µM)
[39]
  MIC: 4 µg/mL (≈ 7.87 µM)
[40]
  MBC: 0.25 µg/mL
[41]
  MIC: 2 µg/mL
[42]
  MIC: 0.5 µg/mL (≈ 0.983 µM)
[43]
  MIC: 2 µg/mL (≈ 3.93 µM)
[44]
  MIC: 2 µg/mL (≈ 3.93 µM)
[45]
  MBC: 4 µg/mL (≈ 7.87 µM)
[46]
  MBC: 4 µg/mL
[47]
  MIC: 16 µg/mL (≈ 31.5 µM)
[48]
  MIC: 0.5 µg/mL
[49]
  MBC: 2 µg/mL (≈ 3.93 µM)
[50]
  MIC: 0.5 µg/mL
[51]
  MIC: > 64 µg/mL
[52]
  MBC: > 64 µg/mL
[53]
  MIC: 2 µg/mL (≈ 3.93 µM)

— ChEMBL document CHEMBL4813981, “Synthesis and in vitro antibacterial activity of new aminothiazole-oximepiperidone cephalosporins” (2021)
